One compound from patent US20250186562A1, “TARGET SUBSTRATE PROTEIN DEGRADATION PLATFORM” (The Regents of the University of California, priority 2022, published 2025) can be followed below.

The structures appear in SMILES notation.

For this assay, the target named is ERRα protein (Homo sapiens (Human), UniProt P11474). Put plainly: ERRα protein level in Hela cells by Western blot. As to conditions: Hela cells treated overnight at 100 nM, 33.3 nM, and 11.1 nM; Western blot of whole cell lysates. The assay is classed as cell-based. As to the method: In this experiment, Hela cells were treated overnight at a concentration of 100 nM, 33.3 nM, and 11.1 nM with the above peptidomimetic compound. The ERRα protein was detected by Western blot from whole cell lysates. Glyceraldehyde 3-phosphate dehydrogenase (GAPDH) was blotted as loading control.
Chain of ERRα protein (P11474 whole entry): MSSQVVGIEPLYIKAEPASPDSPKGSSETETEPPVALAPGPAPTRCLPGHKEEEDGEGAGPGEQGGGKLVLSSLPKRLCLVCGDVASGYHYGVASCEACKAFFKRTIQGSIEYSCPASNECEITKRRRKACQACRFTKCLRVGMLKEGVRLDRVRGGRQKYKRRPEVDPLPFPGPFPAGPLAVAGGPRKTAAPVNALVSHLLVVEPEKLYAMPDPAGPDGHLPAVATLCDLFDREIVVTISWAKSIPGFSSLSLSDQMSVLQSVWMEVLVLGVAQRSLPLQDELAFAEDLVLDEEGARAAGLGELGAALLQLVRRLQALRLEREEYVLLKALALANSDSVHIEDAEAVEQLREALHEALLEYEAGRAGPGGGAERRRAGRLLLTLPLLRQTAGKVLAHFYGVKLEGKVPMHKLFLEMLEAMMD

On to `COc1cc(/C=C2\SC(=O)N(Cc3cn(CCCNC(=O)[C@H](Cc4ccccc4)NC(=O)[C@H](Cc4ccc(O)c([N+](=O)[O-])c4)NC(=O)[C@@H](N)CCCNC(=N)NCC(F)(F)F)nn3)C2=O)ccc1Oc1ccc(C#N)cc1C(F)(F)F` [above peptidomimetic compound], for which the “levels of the ERRα protein in cells” value is recorded as “reduction of levels of the ERRα protein”.
